# Measurements: patent US10220069B2, “Compositions and methods for treating diabetes” (THE JOHNS HOPKINS UNIVERSITY, priority 2014, dated 2019)
# Where no end group is shown, it is not given here.
# How the values were obtained:
# GPR54 [1] = target: T1, GPR54 (Mus musculus, UniProt Q91V45); assay: GSIS from WT islets exposed to K10 or diabetic mouse serum with K234; assay type: cell-based
# T1 construct: Mouse brain, mouse islets, insulinoma cells, and human islets express Kiss1R; from tissue; host or cells: isolated mouse pancreatic islets (WT / Kiss1Rfl/fl, C57Bl/6 background)
# Excerpt: (§1) Accordingly, based on the above outlined considerations on β-cell dysfunction and hyperglucagonemia, we reasoned that glucagon receptor-mediated signaling in the liver is required to initiate β-cell dysfunction and to impair glucose-stimulated insulin secretion. We therefore inducibly disinhibited cAMP-PKA signaling in vivo in adult mouse liver by ablating hepatic protein kinase A regulatory subunit 1A (prkar1a) by adenovirus mediated hepatic CRE recombinase transduction in floxed prkar1a mice (L-Δprkar1a mice) 14 (FIG. 22A). Upregulation of hepatic cAMP-PKA signaling within 3 days stimulated hepatic gluconeogenesis causing increase in fasting glucose levels and insufficient insulin secretion to correct glycemia. Conversely, identical baseline fasting glycemia achieved in mice by continuous exogenous glucose infusion for 3 days 15 (D-glucose mice) was associated with increased insulin secretion and relatively mild impairment of glucose tolerance despite continued exogenous glucose infusions (FIG. 22B). Differential hepatic gene expression analysis between these two mouse models identified the gene encoding the secreted neuropeptide kisspeptin-1 (Kiss1) to be markedly elevated (8× on mRNA array, 15× on qRT-PCR) in L-Δprkar1a but not in D-glucose mice (FIG. 22C). […] The kisspeptin receptor Gpr54 expression was detected at significant levels in pancreatic islets (FIG. 26). […]
# GPR54 [2] = target: T1, GPR54; assay: Glucose tolerance in db/db diabetic mice treated with K234; assay type: in vivo
# Excerpt: as §1
# [3] = intravenous bolus, circulating kisspeptin not measured; cited from earlier work
# mouse Kiss1 promoter = assay: Kiss1 promoter luciferase reporter in H2.35 hepatoma cells; assay type: cell-based; conditions: 1 kb mouse Kiss1 promoter
# Method: Cell Culture Studies. Mouse primary hepatocytes were isolated and cultured as described (He et al., 2009). H2.35 hepatoma cell line was cultured and transfected as described (He et al., 2009). 1 kb of the 5' untranslated region of the mouse Kiss1 gene were cloned by PCR into pGL4. The CRE half sites ([…]) within the promoter region were mutated by site directed mutagenesis to (TATGT). Luciferase activity was measured in cell lysates using a luminometer (Berthold) after treatment each for 2 hours with forskolin/IBMX (100 μM each) or glucagon (200 pg/ml) or/and insulin (2000 pg/ml). Dominant-negative A-CREB (Ahn et al., 1998) and WT CREB were from Addgene. Constitutively active CREB […] (Du et al., 2000) was generated by site directed mutagenesis of WT CREB. […] The mouse Kiss1 promoter contains two putative functional cAMP response element (CRE) half-sites (TGACT) (Zhang et al., 2005) located at _127 and _758 bp upstream of the Kiss1 transcription start site. Mutation of either of the CRE half-sites decreased the transcriptional responses to glucagon or to fsk/IBMX, and combined mutation of both CRE half-sites further decreased the responses (FIG. 9A).
# Kiss1 [4] = assay: Kiss1 expression in primary mouse hepatocytes; assay type: cell-based; conditions: for Kiss1 expression / Pck1 expression: primary mouse hepatocytes, glucagon 200 pg/ml, insulin 2000 pg/ml; for Kiss1 expression: 2 hr
# Method: Cell Culture Studies. Mouse primary hepatocytes were isolated and cultured as described (He et al., 2009). H2.35 hepatoma cell line was cultured and transfected as described (He et al., 2009). 1 kb of the 5' untranslated region of the mouse Kiss1 gene were cloned by PCR into pGL4. The CRE half sites (TGCAT) within the promoter region were mutated by site directed mutagenesis to (TATGT). Luciferase activity was measured in cell lysates using a luminometer (Berthold) after treatment each for 2 hours with forskolin/IBMX (100 μM each) or glucagon (200 pg/ml) or/and insulin (2000 pg/ml). Dominant-negative A-CREB (Ahn et al., 1998) and WT CREB were from Addgene. Constitutively active CREB […] (Du et al., 2000) was generated by site directed mutagenesis of WT CREB. Glucagon Stimulates Hepatic Kiss1 Expression Via Gcgr and cAMP-PKA-CREB Signaling. We next examined whether glucagon directly stimulates hepatic kisspeptin1 production. Glucagon treatment (200 pg/ml) of primary mouse hepatocytes stimulated within 2 hr Kiss1 expression and protein (FIGS. 2A-2C).
# Gcgr [5] = target: T2, Gcgr (Mus musculus, UniProt Q61606); assay: Intraperitoneal glucagon: hepatic kisspeptin1 production; assay type: in vivo
# T2 construct: endogenous in cells; host or cells: live mice (WT, Gcgrfl/fl, HFD-fed C57Bl/6, Lepr db/db); hepatic receptor
# Method: (§2) Intraperitoneal glucose tolerance (ipGTT) and insulin tolerance (ipITT) tests were performed according to standard protocols (Song et al., 2013; Song et al., 2011). After 9 am-3 pm fasting, animals were administered 20% D-glucose (via ip injection), insulin 0.5 U/kg i.p. […] The glucagon receptor antagonist GAI (N-(3-Cyano-6-(1,1-dimethylpropyl)-4,5,6,7-tetrahydro-1-benzothien-2-yl)-2-ethylbutanamide (Qureshi et al., 2004) and its non-active analogue were administered (50 mg/kg i.p. in DMSO) in HFD fed and Lepr^db/db mice 60 min before i. GTT. Intraperitoneal pyruvate converstion (1 g/kg i.p.) test (ipPCT) in ΔL-Prkar1a mice was performed in the fed state (9 am) to avoid any confounding effects of fasting-induced elevated endogenous glucagon levels. Tail-vein blood was collected at the indicated times in figures for glucose and insulin measurements. Serum insulin was measured using mouse magnetic bead panel (Millipore, Luminex). Plasma for glucagon measurements was drawn from mice in the fed state at 9 am, unless otherwise noted for fasting studies. Plasma glucagon (Alpco) and kisspeptin1 (USCN Life Sciences Inc. E92559Ra) were measured by ELISA according to manufacturer's instructions including dilution of samples.
# (§3) Kiss1 transcript was also detectable by qRT-PCR at low levels in spleen, kidney, skeletal muscle, and epididymal fat tissue.
# Gcgr [6] = assay: as above; assay type: in vivo, mouse; conditions: mice lacking liver Gcgr, ip glucagon
# Method: as §2, §3
# Kiss1 [7] = assay: ip insulin in L-Δprkar1a mice: hepatic Kiss1; assay type: in vivo, mouse; conditions: 1 IU/kg ip, within 60 min
# Method: Consistent with these observations of insulin counterregulation of PKA-mediated Kiss1 stimulation, in vivo ip insulin (1 IU/kg) administration in L-Δprkar1a mice to supplement relatively deficient endogenous serum insulin concentrations and to achieve blood glucose reduction, decreased hepatic Kiss1 mRNA and protein levels within 60 min (FIGS. 8I-8K).
# T1 sequence (Q91V45 whole entry): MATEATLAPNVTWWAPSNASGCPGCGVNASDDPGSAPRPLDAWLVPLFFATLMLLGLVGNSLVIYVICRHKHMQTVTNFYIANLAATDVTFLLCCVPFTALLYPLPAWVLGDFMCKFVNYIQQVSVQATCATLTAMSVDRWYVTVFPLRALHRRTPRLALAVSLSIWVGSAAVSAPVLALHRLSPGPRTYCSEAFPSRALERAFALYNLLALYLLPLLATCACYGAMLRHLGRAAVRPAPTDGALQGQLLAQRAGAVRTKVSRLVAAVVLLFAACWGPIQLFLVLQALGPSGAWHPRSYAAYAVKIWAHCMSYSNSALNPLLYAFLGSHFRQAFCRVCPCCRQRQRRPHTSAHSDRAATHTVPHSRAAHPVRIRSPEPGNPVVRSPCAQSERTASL
# T2 sequence (Q61606 27-485): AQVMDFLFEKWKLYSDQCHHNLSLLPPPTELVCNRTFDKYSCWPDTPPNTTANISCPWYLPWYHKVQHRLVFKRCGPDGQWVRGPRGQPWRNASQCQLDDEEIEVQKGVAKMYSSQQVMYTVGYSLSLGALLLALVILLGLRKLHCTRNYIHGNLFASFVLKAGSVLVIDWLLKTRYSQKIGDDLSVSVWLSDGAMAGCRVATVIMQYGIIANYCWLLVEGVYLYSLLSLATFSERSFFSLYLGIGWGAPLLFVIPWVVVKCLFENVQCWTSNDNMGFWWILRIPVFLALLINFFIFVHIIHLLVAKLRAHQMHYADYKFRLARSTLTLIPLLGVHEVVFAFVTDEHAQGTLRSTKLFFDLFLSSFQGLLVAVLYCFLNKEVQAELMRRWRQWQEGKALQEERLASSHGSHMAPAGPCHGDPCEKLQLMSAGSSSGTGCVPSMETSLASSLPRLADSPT
substance,measurement,setting,value
"K234: GPR54 receptor antagonist, Kisspeptin derivative (SEQ ID NOS:36-37; Roseweir et al. 2009)",impaired GSIS of WT islets exposed to diabetic serum,"GPR54 [1]; 10% serum from L-Δprkar1a, db/db and ob/ob mice, co-incubation with K234",recovered
same,effects of K10 on islets (FIG. 27),"GPR54 [1]; WT islets, K10 10 nM",counteracts effects of k10
same,glucose tolerance,GPR54 [2],dramatic improvement in glucose tolerance
"Tyr-Asn-Trp-Asn-Ser-Phe-Gly-Leu-Arg-Phe-NH2 (YNWNSFGLRF-NH2; listed as Homo sapiens) [K10, 10 amino acid C-terminal kisspeptin fragment, GPR54 agonist]",GSIS,[3],stimulate GSIS
glucagon,Kiss1 promoter luciferase reporter activity,mouse Kiss1 promoter,transcriptional activation
same,Kiss1 expression,Kiss1 [4],stimulated
same,Pck1 expression,Kiss1 [4],also stimulated
same,liver Kiss1 transcript and kisspeptin protein in L-ΔInsr mice,Gcgr [5]; compared to Insrfl/fl mice,dramatically increased
same,hepatic kisspeptin1 production,"Gcgr [5]; mice, 16 mg/kg ip, 30 min after injection, versus PBS",increased hepatic kisspeptin1 production
same,kisspeptin production in L-ΔGcgr mice,Gcgr [6],did not change
insulin,glucagon stimulated Kiss1 and Pck1 expression,"Kiss1 [4]; mouse hepatocytes, insulin plus glucagon",dampened
same,Kiss1 expression,Kiss1 [4],reduced basal Kiss1 expression
same,Pck1 expression,Kiss1 [4],also reduced Pck1 expression
same,hepatic Kiss1 mRNA and protein levels,Kiss1 [7],decreased
